Reference: PMC12597549 (Drug Metabolism and Disposition, 2025)
Where a chain is given by its changes, count along the chain named. “Also recorded” adds a separate entry of the source. Where two headings read alike, the source gives them in different places.

Legend:
UGT2B7^268His = target: T1, UGT2B7^268His (Homo sapiens, UniProt P16662, Y268H); experiment: Inhibition of hydromorphone glucuronidation (HM3G formation) by cannabinoids in rUGT2B7^268His microsomes; assay type: biochemical; details: for inhibition of HM3G formation: 100 μM cannabinoid, 400 μM hydromorphone, 2% BSA, vs vehicle control; for IC50: IC50 corrected for nonspecific binding (fu,inc from refs 32,33; 11-OH-THC fu,inc as surrogate for 7-OH-CBD and 7-COOH-CBD), mean ± SD
T1 construct: expressed in transfected cells; microsomal membrane fraction
T1 sequence (P16662 24-529 Y268H): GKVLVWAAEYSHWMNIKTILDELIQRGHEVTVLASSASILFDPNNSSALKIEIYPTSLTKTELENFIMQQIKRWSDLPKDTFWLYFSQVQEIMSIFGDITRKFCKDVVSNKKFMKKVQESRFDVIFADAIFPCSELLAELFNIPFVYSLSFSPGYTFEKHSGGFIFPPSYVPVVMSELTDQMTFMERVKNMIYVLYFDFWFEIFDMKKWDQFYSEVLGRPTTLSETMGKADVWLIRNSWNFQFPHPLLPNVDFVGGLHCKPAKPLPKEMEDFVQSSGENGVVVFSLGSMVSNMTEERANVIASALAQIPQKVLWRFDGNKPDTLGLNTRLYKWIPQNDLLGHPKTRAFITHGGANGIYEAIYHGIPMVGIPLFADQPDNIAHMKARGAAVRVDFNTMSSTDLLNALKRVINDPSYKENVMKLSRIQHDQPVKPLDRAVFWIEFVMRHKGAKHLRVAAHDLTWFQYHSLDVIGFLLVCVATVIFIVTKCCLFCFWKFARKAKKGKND

[1] = target: T2, UGT2B7 in pooled human liver microsomes (HLM) (Homo sapiens, UniProt P16662); experiment: Inhibition of UGT2B7-mediated hydromorphone glucuronidation by cannabinoids in pooled HLM (screening, IC50, Ki, inhibition type); assay type: biochemical; details: for inhibition of HM3G formation (in words) / inhibition of HM3G formation: 100 μM cannabinoid, pooled HLM; for IC50: IC50 corrected for nonspecific binding (fu,inc from refs 32,33; 11-OH-THC fu,inc as surrogate for 7-OH-CBD and 7-COOH-CBD), mean ± SD; for Inhibition Type: type of reversible inhibition of UGT2B7-mediated hydromorphone metabolism in HLM, Lineweaver-Burk replots; for inhibition of HM3G formation: 400 μM hydromorphone, 2% BSA, vs vehicle control; for Ki: Ki corrected for nonspecific binding (fu,inc from refs 32,33; 11-OH-THC fu,inc as surrogate for 7-OH-CBD), competitive model, mixed model for 11-OH-THC, read-out: Ki,u
T2 sequence (P16662 24-529): T1 sequence (P16662 24-529 Y268H) with H245Y

UGT2B7^268Tyr [2] = target: T3, UGT2B7^268Tyr (Homo sapiens, UniProt P16662); details: rUGT2B7^268Tyr microsomes; for inhibition of HM3G formation: 100 μM cannabinoid, 400 μM hydromorphone, 2% BSA, vs vehicle control; for IC50: read-out: IC50,u, IC50 corrected for nonspecific binding (fu,inc from refs 32,33; 11-OH-THC fu,inc as surrogate for 7-OH-CBD), mean ± SD
T3 sequence (P16662 24-529): T1 sequence (P16662 24-529 Y268H) with H245Y

[3] = ref Bansal et al., 2022, cited from earlier work
UGT2B7 [4] = test system: UGT2B7; set-up: method as in Bansal et al., 2023; details: enzyme kinetic (HLM); ref Bansal et al., 2023; cited from earlier work
CYP2C9 = test system: CYP2C9; set-up: method as in Bansal et al., 2023; details: enzyme kinetic (HLM); ref Bansal et al., 2023; cited from earlier work
[5] = set value for static model, cited from earlier work; for ka (first-order absorption rate constant): ref Cox et al., 2019
CYP2C8 = test system: CYP2C8; set-up: method as in Bansal et al., 2023; details: enzyme kinetic (HLM); ref Bansal et al., 2023; cited from earlier work
CYP3A4 = test system: CYP3A4; set-up: method as in Bansal et al., 2023; details: enzyme kinetic (HLM); ref Bansal et al., 2023; cited from earlier work
CYP2D6 = test system: CYP2D6; set-up: method as in Bansal et al., 2023; details: enzyme kinetic (HLM); ref Bansal et al., 2023; cited from earlier work
CYP2C19 [6] = test system: CYP2C19; set-up: method as in Bansal et al., 2020; details: ref Bansal et al., 2020, read-out: KI,u (binding-corrected half-maximal inactivation concentration); cited from earlier work
UGT2B7 [7] = target: T4, UGT2B7 (Homo sapiens, UniProt P16662); experiment: Inhibition of UGT2B7-mediated hydromorphone glucuronidation by cannabinoids in pooled HLM (screening, IC50, Ki, inhibition type); assay type: biochemical; details: human, pooled human liver microsomes
T4 sequence (P16662 24-529): T1 sequence (P16662 24-529 Y268H) with H245Y

UGT2B7^268Tyr [8] = target: T3, UGT2B7^268Tyr; experiment: in vitro
CYP1A2 [9] = test system: CYP1A2; set-up: method as in Bansal et al., 2020; details: ref Bansal et al., 2020, read-out: KI,u (binding-corrected half-maximal inactivation concentration); cited from earlier work
[10] = test system: UGT2B7-mediated hydromorphone metabolism; experiment: Static mechanistic IVIVE modeling of cannabinoid-hydromorphone drug interaction (AUCR); set-up: species or system human; details: after inhalation and oral consumption of THC and CBD
CYP3A = test system: CYP3A; set-up: method as in Bansal et al., 2020; details: ref Bansal et al., 2020, read-out: KI,u (binding-corrected half-maximal inactivation concentration); cited from earlier work
CYP2C19 [11] = test system: CYP2C19; set-up: method as in Bansal et al., 2023; details: enzyme kinetic (HLM); ref Bansal et al., 2023; cited from earlier work
CYP2B6 = test system: CYP2B6; set-up: method as in Bansal et al., 2023; details: enzyme kinetic (HLM); ref Bansal et al., 2023; cited from earlier work
[12] = cannabidiol PBPK input; ref ChEMBL database (https://www.ebi.ac.uk/); cited from earlier work
CYP1A2 [13] = test system: CYP1A2; set-up: method as in Bansal et al., 2023; details: enzyme kinetic (HLM); ref Bansal et al., 2023; cited from earlier work
UGT1A9 = test system: UGT1A9; set-up: method as in Bansal et al., 2023; details: enzyme kinetic (HLM); ref Bansal et al., 2023; cited from earlier work
[14] = Estimated maximum unbound hepatic inlet plasma concentrations of cannabinoids after oral or inhaled THC or CBD; set-up: species or system human; details: doses and Cmax from Bansal et al., 2022, read-out: Cmax,hepatic inlet,u
From the text: [I]h is the inhibitor concentration in the liver and is defined as follows:(7) [I]h=fu,p×(Cmax+Fa×Fg×Ka×Dose/Qh×Rb) where fu,p is the unbound fraction of inhibitor in plasma, and Cmax is the maximal total (free and bound) inhibitor concentration in the plasma.

UGT2B7^268Tyr [15] = details: from IC50,u values in rUGT2B7^268Tyr vs rUGT2B7^268His microsomes
[16] = first-order absorption model, fasted
[17] = probe hydromorphone 400 μM (HM3G formation)

C=C(C)[C@@H]1CCC(C(=O)O)=C[C@H]1c1c(O)cc(CCCCC)cc1O [7-COOH-CBD]
inhibition of HM3G formation (UGT2B7^268His): 60%
IC50 (UGT2B7^268His): 5540 ± 3670 nM
inhibition of HM3G formation (in words) [1]: only minimal or moderate inhibition
IC50 ([1]; HLM): > 10000 nM
inhibition of HM3G formation (UGT2B7^268Tyr [2]): 41%
inhibitory effect on hydromorphone metabolism for the UGT2B7∗2 variant (in words) (UGT2B7^268Tyr [2]): little to no inhibitory effect

C=C(C)[C@@H]1CCC(C)=C[C@H]1c1c(O)cc(CCCCC)cc1O [CBD, cannabidiol]
Lag time ([3]; fasted): 1.5^1 hr
fa [3, 16]: 0.25^1
ka [3, 16]: 0.55^1 1/hr
Fraction unbound in plasma [3]: 0.013
Qgut [3]: 10.24 L/h
fugut [3]: 0.013
CLint, UGT: UGT2B7 (UGT2B7 [4]): 2162 µL/min/mg of protein
CLint, CYP: CYP2C9 (CYP2C9): 93 µL/min/mg of protein
ka (first-order absorption rate constant) [5]: 0.02
CLint, CYP: CYP2C8 (CYP2C8): 51 µL/min/mg of protein
CLint, CYP: CYP3A4 (CYP3A4): 220 µL/min/mg of protein
CLint, CYP: CYP2D6 (CYP2D6): 38 µL/min/mg of protein
KI (inactivation) (CYP2C19 [6]): 73 nM
Inhibition Type [1]: Competitive
IC50 (UGT2B7 [7]; [17]): 140 ± 40 nM
inhibition at 100 μM (UGT2B7 [7]; [17]): 83%
Ki (UGT2B7 [7]; HLM, Ki corrected for nonspecific binding (fu,inc from refs 32,33; 11-OH-THC fu,inc as surrogate for 7-OH-CBD), competitive model, mixed model for 11-OH-THC, read-out: Ki,u): 68 ± 3 nM
inhibition at 100 μM (UGT2B7^268Tyr [8]): 96%
KI (inactivation) (CYP1A2 [9]): 20 nM
increase in hydromorphone exposure (static modeling) [10]: > 1.25 fold
KI (inactivation) (CYP3A): 106 nM
CLint, CYP: CYP2C19 (CYP2C19 [11]): 193 µL/min/mg of protein
CLint, CYP: CYP2B6 (CYP2B6): 46 µL/min/mg of protein
Log P [12]: 6.33
pKa [12]: 9.13
CLint, CYP: CYP1A2 (CYP1A2 [13]): 56 µL/min/mg of protein
CLint, UGT: UGT1A9 (UGT1A9): 541 µL/min/mg of protein

C=C(C)[C@@H]1CCC(CO)=C[C@H]1c1c(O)cc(CCCCC)cc1O [7-OH-CBD, 7-hydroxycannabidiol]
inhibition of HM3G formation (UGT2B7^268His): 82%
IC50 (UGT2B7^268His): 1390 ± 770 nM
inhibition of HM3G formation [1]: 87%
IC50 ([1]; HLM): 950 ± 250 nM
Ki ([1]; HLM): 740 ± 120 nM
Inhibition Type [1]: Competitive
inhibition of HM3G formation (UGT2B7^268Tyr [2]): 77%
IC50 (UGT2B7^268Tyr [2]): 1260 ± 930 nM
Cmax ([14]; CBD 70 mg oral): 30 nM
Cmax ([14]; CBD 700 mg oral): 340 nM
Cmax ([14]; CBD 2000 mg oral): 980 nM
increase in hydromorphone exposure (static modeling) [10]: > 1.25 fold

CCCCCc1cc(O)c2c(c1)OC(C)(C)[C@@H]1CCC(C)=C[C@@H]21 [THC, Δ^9-tetrahydrocannabinol, reference compound]
inhibition of HM3G formation (UGT2B7^268His): 67%
IC50 (UGT2B7^268His): 2920 ± 260 nM
ka (first-order absorption rate constant) [5]: 0.02
BP (blood to plasma ratio) ([5]; ref Schwilke et al., 2009): 0.4
inhibition of HM3G formation (in words) [1]: only minimal or moderate inhibition
IC50 ([1]; HLM): 2500 ± 580 nM
Ki ([1]; HLM): 170 ± 20 nM
Inhibition Type [1]: Competitive
inhibition of HM3G formation (UGT2B7^268Tyr [2]): 45%
inhibitory effect on hydromorphone metabolism for the UGT2B7∗2 variant (in words) (UGT2B7^268Tyr [2]): little to no inhibitory effect
Cmax ([14]; THC 20 mg oral): 30 nM
Cmax ([14]; THC 25 mg inhalation): 250 nM
Cmax ([14]; THC 70 mg inhalation): 690 nM
Cmax ([14]; THC 100 mg inhalation): 990 nM
Cmax ([14]; THC 130 mg oral): 200 nM
Cmax ([14]; THC 160 mg oral): 240 nM
increase in hydromorphone exposure (static modeling) [10]: > 1.25 fold

11-hydroxy (OH)-Δ^9-THC [11-OH-THC]
inhibition of HM3G formation (UGT2B7^268His): 98%
IC50 (UGT2B7^268His): 360 ± 30 nM
inhibition of HM3G formation [1]: 96%
α value (mixed inhibition model) ([1]; HLM, GraphPad mixed inhibition model): > 1
IC50 ([1]; HLM): 1080 ± 140 nM
Ki ([1]; HLM): 1010 ± 180 nM
Inhibition Type [1]: mixed type inhibition
inhibitory effect against UGT2B7∗2, fold lower than with UGT2B7∗1 (UGT2B7^268Tyr [15]): 2- to 3 fold
inhibition of HM3G formation (UGT2B7^268Tyr [2]): 87%
IC50 (UGT2B7^268Tyr [2]): 840 ± 190 nM
Cmax ([14]; THC 20 mg oral): 20 nM
Cmax ([14]; THC 25 mg inhalation): 10 nM
Cmax ([14]; THC 70 mg inhalation): 30 nM
Cmax ([14]; THC 100 mg inhalation): 50 nM
Cmax ([14]; THC 130 mg oral): 100 nM
Cmax ([14]; THC 160 mg oral): 120 nM
increase in hydromorphone exposure (static modeling) [10]: > 1.25 fold

CCCCCc1cc(O)c2c(c1)OC(C)(C)[C@@H]1CCC(C(=O)O)=C[C@@H]21 [11-COOH-THC, 11-nor-9-carboxy (COOH)-Δ^9-THC]
inhibition of HM3G formation (UGT2B7^268His): 49%
inhibition of HM3G formation (in words) [1]: only minimal or moderate inhibition; also recorded: did not show appreciable inhibition
inhibition of HM3G formation (UGT2B7^268Tyr [2]): 27%
Cmax ([14]; THC 20 mg oral): 190 nM
Cmax ([14]; THC 25 mg inhalation): 70 nM
Cmax ([14]; THC 70 mg inhalation): 180 nM
Cmax ([14]; THC 100 mg inhalation): 260 nM
Cmax ([14]; THC 130 mg oral): 1220 nM
Cmax ([14]; THC 160 mg oral): 1500 nM
